System: 415267-285-R-J2-PDC complex spheroid viability
Assay: Anticancer human tumor 415267-285-R-J2-PDC patient-derived breast carcinoma cell line growth inhibition [POLQ]
Conditions: for IC50: curve of first compound; for viability, T/C: stronger effect = lower value
Procedure, shortened: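 Patient-derived tumour cells were co-cultured with HUVEC and mesenchymal stem cells as multicellular spheroids at 37 °C. They were treated with POLQ inhibitors (novobiocin, ART-558, RP6685) alone or combined with other agents. Top concentrations were at or near clinical Cmax (otherwise 10 microM; SN-38 at 1 microM), decreasing in half-log steps.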
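Note: spheroids exposed to compounds for one week before readout.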
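Throughout, for viability, T/C: luminescence used as stand-in measure of viable cells; 100% = DMSO vehicle control viability.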

Q: How did the IC50 (second compound 0.0316 µM) turn out when `CC1COCCN1c1cc(C2(O)CC3CCC(C2)O3)c2cnn(-c3ccn[nH]3)c2n1` (centres undefined) + COC1C(OC(N)=O)C(O)C(Oc2ccc3c(O)c(NC(=O)c4ccc(O)c(CC=C(C)C)c4)c(=O)oc3c2C)OC1(C)C was run?
A: Its IC50 is less than 31.6 nM.

Q: And the IC50 (second compound 0.1 µM)?
A: The IC50 was less than 31.6 nM.

Q: What about the IC50 (second compound 0.316 µM) of the same compound?
A: Its IC50 is less than 31.6 nM.

Q: And the IC50 (second compound 1 µM)?
A: The IC50 was less than 31.6 nM.

Q: What about the IC50 (second compound 3.16 µM) of the same compound?
A: Its IC50 is less than 31.6 nM.

Q: And the IC50 (second compound 10 µM)?
A: The IC50 was less than 31.6 nM.

Q: And the viability, T/C (second compound 0.0316 µM, first compound 0.0316 µM)?
A: Its viability, T/C is 17.2%.

Q: What about the viability, T/C (second compound 0.0316 µM, first compound 0.1 µM) of the same compound?
A: Its viability, T/C is 6.83%.

Q: And the viability, T/C (second compound 0.0316 µM, first compound 0.316 µM)?
A: Its viability, T/C is 8.23%.

Q: And the viability, T/C (second compound 0.0316 µM, first compound 1 µM)?
A: The viability, T/C was 5.44%.

Q: And the viability, T/C (second compound 0.0316 µM, first compound 3.16 µM)?
A: The viability, T/C was 4.27%.

Q: What about the viability, T/C (second compound 0.0316 µM, first compound 10 µM) of the same compound?
A: The viability, T/C was 4.51%.

Q: What about the viability, T/C (second compound 0.1 µM, first compound 0.0316 µM) of the same compound?
A: The viability, T/C was 17.1%.

Q: What about the viability, T/C (second compound 0.1 µM, first compound 0.1 µM) of the same compound?
A: The viability, T/C was 6.51%.

Q: What about the viability, T/C (second compound 0.1 µM, first compound 0.316 µM) of the same compound?
A: Its viability, T/C is 4.34%.

Q: What about the viability, T/C (second compound 0.1 µM, first compound 1 µM) of the same compound?
A: The viability, T/C was 4.52%.

Q: What about the viability, T/C (second compound 0.1 µM, first compound 3.16 µM) of the same compound?
A: Its viability, T/C is 3.9%.

Q: What about the viability, T/C (second compound 0.1 µM, first compound 10 µM) of the same compound?
A: Its viability, T/C is 4.57%.

Q: And the viability, T/C (second compound 0.316 µM, first compound 0.0316 µM)?
A: The viability, T/C was 22.7%.

Q: What about the viability, T/C (second compound 0.316 µM, first compound 0.1 µM) of the same compound?
A: The viability, T/C was 9.96%.

Q: What about the viability, T/C (second compound 0.316 µM, first compound 0.316 µM) of the same compound?
A: The viability, T/C was 4.64%.

Q: What about the viability, T/C (second compound 0.316 µM, first compound 1 µM) of the same compound?
A: Its viability, T/C is 3.57%.

Q: And the viability, T/C (second compound 0.316 µM, first compound 3.16 µM)?
A: Its viability, T/C is 5.27%.

Q: What about the viability, T/C (second compound 0.316 µM, first compound 10 µM) of the same compound?
A: Its viability, T/C is 4%.

Q: What about the viability, T/C (second compound 1 µM, first compound 0.0316 µM) of the same compound?
A: The viability, T/C was 27.2%.

Q: And the viability, T/C (second compound 1 µM, first compound 0.1 µM)?
A: The viability, T/C was 6.76%.

Q: What about the viability, T/C (second compound 1 µM, first compound 0.316 µM) of the same compound?
A: The viability, T/C was 4.22%.

Q: What about the viability, T/C (second compound 1 µM, first compound 1 µM) of the same compound?
A: Its viability, T/C is 4.87%.

Q: What about the viability, T/C (second compound 1 µM, first compound 3.16 µM) of the same compound?
A: The viability, T/C was 4.41%.

Q: And the viability, T/C (second compound 1 µM, first compound 10 µM)?
A: The viability, T/C was 3.65%.

Q: What about the viability, T/C (second compound 3.16 µM, first compound 0.0316 µM) of the same compound?
A: Its viability, T/C is 21%.

Q: What about the viability, T/C (second compound 3.16 µM, first compound 0.1 µM) of the same compound?
A: The viability, T/C was 8.52%.

Q: What about the viability, T/C (second compound 3.16 µM, first compound 0.316 µM) of the same compound?
A: Its viability, T/C is 4.99%.

Q: What about the viability, T/C (second compound 3.16 µM, first compound 1 µM) of the same compound?
A: The viability, T/C was 4.02%.

Q: What about the viability, T/C (second compound 3.16 µM, first compound 3.16 µM) of the same compound?
A: The viability, T/C was 4.45%.

Q: What about the viability, T/C (second compound 3.16 µM, first compound 10 µM) of the same compound?
A: Its viability, T/C is 4.43%.

Q: What about the viability, T/C (second compound 10 µM, first compound 0.0316 µM) of the same compound?
A: The viability, T/C was 29.5%.

Q: And the viability, T/C (second compound 10 µM, first compound 0.1 µM)?
A: Its viability, T/C is 7.77%.

Q: What about the viability, T/C (second compound 10 µM, first compound 0.316 µM) of the same compound?
A: The viability, T/C was 5.61%.

Q: And the viability, T/C (second compound 10 µM, first compound 1 µM)?
A: The viability, T/C was 5.07%.

Q: And the viability, T/C (second compound 10 µM, first compound 3.16 µM)?
A: The viability, T/C was 4.2%.

Q: What about the viability, T/C (second compound 10 µM, first compound 10 µM) of the same compound?
A: The viability, T/C was 4.18%.

Q: Which IC50 (second compound 0.0316 µM) does the source give for `CC(=O)O[C@H]1C(=O)[C@@]2(C)[C@H]([C@H](OC(=O)c3ccccc3)[C@]3(O)C[C@H](OC(=O)[C@H](O)[C@@H](NC(=O)c4ccccc4)c4ccccc4)C(C)=C1C3(C)C)[C@]1(OC(C)=O)CO[C@@H]1C[C@@H]2O` + Cc1cccc(N(C)C(=O)C2C(O)CCN2c2nc(C)cc(C(F)(F)F)c2C#N)c1 here?
A: The IC50 was less than 9.49 nM.

Q: What about the IC50 (second compound 0.1 µM) of the same compound?
A: The IC50 was less than 9.49 nM.

Q: And the IC50 (second compound 0.316 µM)?
A: Its IC50 is less than 9.49 nM.

Q: And the IC50 (second compound 1 µM)?
A: The IC50 was less than 9.49 nM.

Q: And the IC50 (second compound 3.16 µM)?
A: The IC50 was less than 9.49 nM.

Q: What about the IC50 (second compound 10 µM) of the same compound?
A: Its IC50 is less than 9.49 nM.

Q: What about the viability, T/C (second compound 0.0316 µM, first compound 0.00949 µM) of the same compound?
A: Its viability, T/C is 17.5%.

Q: And the viability, T/C (second compound 0.0316 µM, first compound 0.03 µM)?
A: The viability, T/C was 9.49%.

Q: And the viability, T/C (second compound 0.0316 µM, first compound 0.0949 µM)?
A: Its viability, T/C is 9.45%.

Q: What about the viability, T/C (second compound 0.0316 µM, first compound 0.3 µM) of the same compound?
A: The viability, T/C was 5.12%.

Q: And the viability, T/C (second compound 0.0316 µM, first compound 0.949 µM)?
A: Its viability, T/C is 6.11%.

Q: What about the viability, T/C (second compound 0.0316 µM, first compound 3 µM) of the same compound?
A: Its viability, T/C is 8.5%.

Q: What about the viability, T/C (second compound 0.1 µM, first compound 0.00949 µM) of the same compound?
A: The viability, T/C was 14.3%.

Q: What about the viability, T/C (second compound 0.1 µM, first compound 0.03 µM) of the same compound?
A: The viability, T/C was 10.3%.

Q: What about the viability, T/C (second compound 0.1 µM, first compound 0.0949 µM) of the same compound?
A: The viability, T/C was 6.91%.

Q: And the viability, T/C (second compound 0.1 µM, first compound 0.3 µM)?
A: The viability, T/C was 5.82%.

Q: And the viability, T/C (second compound 0.1 µM, first compound 0.949 µM)?
A: The viability, T/C was 6.96%.

Q: And the viability, T/C (second compound 0.1 µM, first compound 3 µM)?
A: Its viability, T/C is 7.65%.

Q: What about the viability, T/C (second compound 0.316 µM, first compound 0.00949 µM) of the same compound?
A: The viability, T/C was 15.2%.

Q: And the viability, T/C (second compound 0.316 µM, first compound 0.03 µM)?
A: The viability, T/C was 10.9%.

Q: What about the viability, T/C (second compound 0.316 µM, first compound 0.0949 µM) of the same compound?
A: The viability, T/C was 8.77%.

Q: What about the viability, T/C (second compound 0.316 µM, first compound 0.3 µM) of the same compound?
A: The viability, T/C was 8.04%.

Q: What about the viability, T/C (second compound 0.316 µM, first compound 0.949 µM) of the same compound?
A: Its viability, T/C is 7.71%.

Q: What about the viability, T/C (second compound 0.316 µM, first compound 3 µM) of the same compound?
A: Its viability, T/C is 6.2%.

Q: What about the viability, T/C (second compound 1 µM, first compound 0.00949 µM) of the same compound?
A: The viability, T/C was 16.9%.

Q: What about the viability, T/C (second compound 1 µM, first compound 0.03 µM) of the same compound?
A: Its viability, T/C is 8.87%.

Q: What about the viability, T/C (second compound 1 µM, first compound 0.0949 µM) of the same compound?
A: The viability, T/C was 7.59%.

Q: And the viability, T/C (second compound 1 µM, first compound 0.3 µM)?
A: Its viability, T/C is 5.96%.

Q: And the viability, T/C (second compound 1 µM, first compound 0.949 µM)?
A: The viability, T/C was 7.86%.

Q: And the viability, T/C (second compound 1 µM, first compound 3 µM)?
A: Its viability, T/C is 7.38%.

Q: What about the viability, T/C (second compound 3.16 µM, first compound 0.00949 µM) of the same compound?
A: Its viability, T/C is 13.7%.

Q: And the viability, T/C (second compound 3.16 µM, first compound 0.03 µM)?
A: Its viability, T/C is 9.96%.

Q: And the viability, T/C (second compound 3.16 µM, first compound 0.0949 µM)?
A: Its viability, T/C is 7.09%.

Q: And the viability, T/C (second compound 3.16 µM, first compound 0.3 µM)?
A: Its viability, T/C is 7.4%.

Q: And the viability, T/C (second compound 3.16 µM, first compound 0.949 µM)?
A: The viability, T/C was 6.8%.

Q: And the viability, T/C (second compound 3.16 µM, first compound 3 µM)?
A: The viability, T/C was 8.17%.

Q: And the viability, T/C (second compound 10 µM, first compound 0.00949 µM)?
A: The viability, T/C was 12.7%.

Q: What about the viability, T/C (second compound 10 µM, first compound 0.03 µM) of the same compound?
A: The viability, T/C was 10%.

Q: What about the viability, T/C (second compound 10 µM, first compound 0.0949 µM) of the same compound?
A: Its viability, T/C is 8.12%.

Q: And the viability, T/C (second compound 10 µM, first compound 0.3 µM)?
A: Its viability, T/C is 8.5%.

Q: What about the viability, T/C (second compound 10 µM, first compound 0.949 µM) of the same compound?
A: The viability, T/C was 8.14%.

Q: What about the viability, T/C (second compound 10 µM, first compound 3 µM) of the same compound?
A: Its viability, T/C is 9.36%.

— PubChem BioAssay AID1963847 (Molecular Pharmacology Branch, DTP, NCI, 2024)
